# Data from patent US11267809B2, “BAF complex modulating compounds and methods of using the same” (THE BOARD OF TRUSTEES OF THE LELAND STANFORD JUNIOR …, priority 2017, dated 2022).
# How the values were obtained:
# Bmi1 expression = assay: Screen for increased expression of Bmi1 (BAF target) in mESCs; type: cell-based, mouse; conditions: mESC screen
# Description: This synthetic lethal interaction has been attributed to the increased dependency of ARID1A-deficient cells on the ATR-mediated G2/M decatenation checkpoint following loss of ARID1A-mediated interactions of the BAF complex with TOP2A^7,27. Utilizing the knowledge that one of the BAF complex's diverse and essential functions involves repression of specific genes in embryonic stem cells^28, we developed a screening strategy to identify compounds that upregulate target genes repressed by the embryonic BAF complex (esBAF) in mESCs including Bmil, Ringl, and Fgf4 (FIG. 1b)^16,29. Given that the loss of ARID1A (a functionally critical, mechanistically elusive, and frequently mutated subunit of the BAF complex) sensitizes cancer cells to inhibition of the ATR kinase, we sought to identify whether our putative esBAF inhibitors (FIG. 1c) might phenocopy the loss of ARID1A in cancer cells and thereby synergize with ATR inhibitors.
# We recently completed a large-scale screen to identify small molecules that result in increased expression of Bmi1, a known genetic target of BAF whose expression is increased about 6- to 12-fold upon deletion of the SMARCA4 ATPase subunit of the BAF complex^29. […]
# MDA-MB-436 cells = assay: Synergy viability assay, MDA-MB-436; type: cell-based, human
# Description: In ARID1A-deficient tumors, ATR inhibition is thought to trigger premature mitotic entry and chromosome instability that cannot be resolved, resulting in mitotic catastrophe^27. […] We sought to assess whether generic BAF inhibition might sensitize a host of cancers to ATR inhibition. We tested the efficacy of BAFi and ATRi on nine additional human cancer cell lines including seven Breast cancer cell lines (HCC1143, HCC1954, HCC1187, MDAMB-468, MDA-MB-436, Cal-51, MCF-7) and two renal clear cell carcinoma cell lines (A-704, and ACHN). Cal-51 and MCF-7 are both considered aggressive, highly mutated breast cancer cell lines with numerous COSMIC Census gene mutations (FIG. 10). HCC1143 and MDA-MB-468 are sporadic basal-likecancers, HCC1187 is a triple-negative breast cancer, and HCC1954 and MDA-MB-436 are BRCA1 mutant breast cancers which harbor single driver mutations. To assess synergy, each cell line was treated with 5 doses of VE-821 (1.25 uM-20 uM) and 5 doses of Baficillin1 (1.25 uM-20 uM), both independently and with all possible combinations. Like HCT-116 cells, Baficillin1 sensitized MCF-7 and Cal-51 cells lines to treatment with VE-821 (FIG. 6a).
# Viability assays were performed in 384-well plates. Cells were plated at 500 cells/well. […] After 5 days, cellular viability was measured using CellTitre blue, as described by the manufacturer.
# [1] = tested on: HCT116 (ARID1A−/−) cell line; assay: Synergy viability assay, HCT116 ARID1A(-/-); type: cell-based, human
# Description: SMARCA4, the primary target of our original screen, is present in both human BAF and PBAF complexes in cancer^12. PBAF complexes differ from BAF complexes by incorporation of specific subunits. Specifically, PBAF complexes contain ARID2 (as opposed to ARID1A/B), PHF10 (BAF45a) (as opposed to […] (BAF45d)), PBRM1, and lack the BAF-specific subunit SS18. PBAF specific subunits are also frequently mutated in cancer, specifically renal clear cell carcinomas and cholangiocarcinomas^33-36. To assess whether the lead compound is targeting BAF, PBAF complexes, or both, we constitutively knocked down ARID1A or ARID2 by lentiviral transduction of HCT116 cells and compared the BAFi/ATRi synergy to the wild-type (ARID1A+/+).
# Isogenic HCT116 ARID1A(+/+) and ARID1A(−/−) cell lines were originally obtained from Horizon Discovery. MCF-7, Cal-51, A-704, and MDA-MB-436, MDA-MB-468, HCC1143, HCC1187, HCC1954, and ACHN cell lines were obtained from American Type […]. All cell lines were grown in McCoy's 5a Media supplemented with 10% FBS.
# Viability assays were performed in 384-well plates. Cells were plated at 500 cells/well. Each drug was administered in 5-doses with 4 replicates per plate, and each 5×5 drug combination was administered with 8 replicates per plate, 24 hours after seeding. All error bars represent 4 or 8 technical replicates averaged over 3 independent experiments. Media containing fresh drug was replaced every 48 hours. After 5 days, cellular viability was measured using CellTitre blue, as described by the manufacturer.
structure (smiles),measurement,setting,value
CO[C@H]1CN(C)C(=O)c2cc(NC(=O)NC(C)C)ccc2OC[C@H](C)N(Cc2ccc(-c3ccccn3)cc2)C[C@@H]1C [Baficillin1],activation of Bmi1 and other BAF targets,Bmi1 expression,robust activation
same,sensitivity to Baficillin1 independently,"MDA-MB-436 cells; single agent, BRCA1 mutant line",significantly more sensitive
same,combinatorial effects of BAFi/ATRi,MDA-MB-436 cells; with VE-821,strictly additive
same,sensitivity (cell survival) compared to wild-type HCT116,"[1]; single agent, 5 continuous days",slightly less sensitive
same,combination index (CI −/−),"[1]; with VE-821, 5 days",1.44±0.12
